For data set [1], the system named is C. albicans strain DAY185. Description: in vitro antifungal activity (MIC) in the co-inoculation assay, turbidity read visually. In kind it is cell-based. The following applies: for MIC in vitro: co-inoculation assay, two-fold serial dilutions, C. albicans DAY185; for in vitro growth of C. albicans: screen / dose response. Here is the method: (§1) The procedure for the co-inoculation antifungal compound screen were conducted as previously described (Okoli et al., PLoS ONE, 4:e7025 (2009); Tampakakis et al., Nat Protocols, 3:1925-1931 (2008)), using the C. albicans strain DAY185 (Davis et al., Infect Immun, 68:5953-5959 (2000)) and the C. elegans glp-4;sek-1 double mutant.
The determination of the lowest concentration of the selected compounds showing in vitro antifungal activity was accomplished by following the steps detailed in the co-inoculation assay, using two-fold serial dilutions of the test compounds.

Data set [2] concerns C. albicans. The data set is described as follows: C. elegans-C. albicans co-inoculation assay, nematode survival. In kind it is in vivo. To be noted: for maximum nematode survival: C. albicans-infected C. elegans; for EC50 in vivo: dose that resulted in 50% survival of C. albicans-infected nematodes. Here is the method: as §1
(§2) This assay allows simultaneous assessment of a compound's potential toxicity and the ability to promote the survival of the nematode in the presence of C. albicans, including modes of action not traditionally considered in antifungal assays such as impeding a fungal virulence factor or promoting host immune response. We performed a screen of 2,560 natural products representing a fraction of the Analyiticon Discovery compound collection (ac-discovery.com) housed at the Broad Institute of Harvard and MIT (Cambridge, Mass.). […] These natural products identified in the primary screen were retested and confirmed (FIG. 1; Table 1). […] Moreover, although the antifungal effects of some of these saponins have been reported (Sata et al., Biosci Biotechnol Biochem, 62:1904-1911 (1998); Ohtani et al., Phytochem, 33:83-86 (1993)), their efficacy against Candida spp. has not been studied.
After confirmation of these hits, dose response experiments were conducted to determine the concentration that provided maximum nematode survival. The compounds conferred a range of nematode survival from 27% (compound A6) to 93% (compounds A2, A7, A24, and A25), however, with the exception of A6, all compounds conferred a nematode survival over 65% (FIG. 1).

In data set [3] the test system is C. elegans. Description: toxicity to the nematode in dose response experiments. The following applies: for toxicity to the nematode: dose response experiments, higher concentrations.
Text: as §2
Representatives of the saponins family are able to disrupt cellular membranes and the lytic activity on erythrocytes has been used as an assay for some saponins Francis et al., British Journal of Nutrition, 88:587-605 (2002)). This property is derived from the affinity of some saponins for binding cholesterol forming insoluble pores composed of the sterol and saponins (Bangham et al., Nature, 196:952-953(1962); Glauert et al., Nature, 196:953-955 (1962)). […] The dose-response experiments previously used to determine the EC50 and approximate the MIC can also indicate if the saponins maybe toxic to C. elegans and potentially to mammalian cells.

In data set [4] the test system is C. albicans strains. Description: MIC by standard CLSI microdilution protocol M27-A. Format: cell-based. Here is the method: Using the standard Clinical and Laboratory Standards Institute (CLSI) procedure, the in vitro MIC of these two compounds was determined on the following C. albicans strains: DAY185 (the standard strain used throughout the screen), two fluconazole-resistant strains of C. albicans, and an echinocandin-resistant strain of C. albicans (Table 2).
(§3) The minimal inhibitory concentration (MIC) was determined for strains DAY185, 98-145, 95-120 (White et al., Antimicrob Agents Chemother, 46:1704-1713 (2002)), and A15-10 (Garcia-Effron et al., Antimicrob Agents Chemother, 53:112-122 (2009)) spectrophotometrically using RPMI 1640 media (Mediatech, Inc.) following the standard CLSI microdilution protocol M27-A (National Committee for Clinical Laboratory Standards, Reference method for broth dilution susceptibility testing of yeasts. Tentative standard M27-A, Villanova, Pa. (1995)). Biofilm assays using identified compounds were conducted as previously described (Richard et al., Eukaryot Cell, 4:1493-1502 (2005)). The biofilm dry mass was determined by drying the silicone squares in a chemical hood, and weighing the resulting biofilm mass subtracting the previously weighed mass of the silicone square. Biofilm pictures were captured using a confocal laser microscope (TCS NT, Leica Microsystems). Cells were grown at 30° C., exposed to PS for 30 min, and then washed with PBS.
A general note: In broth dilution the organism is exposed to a series of concentrations in liquid medium.

Data set [5] has as its system C. albicans biofilm. Description: biofilm formation on silicone pads (dry mass). In kind it is cell-based. The following applies: 20 μg/mL (below the MIC), compared with caspofungin. Here is the method: as §3, with “Biofilm pictures were captured using a confocal laser microscope (TCS NT, Leica Microsystems). Cells were grown at 30° C., exposed to PS for 30 min, and then washed with PBS.” left out
Caspofungin (Merck) served as a known antifungal compound control. In vitro hyphal inhibition was assessed by incubation of DAY185 in RPMI 1640 media at 37° C. […] The ability of the antifungal compound A16, at either 2 or 4 μg/mL, to induce osmotic stress was assessed using DAY185 grown in a 96 well microtiter plate containing RPMI 1640 media and NaCl, ranging in concentrations from 0-2 M in 0.25 M increments. The growth of the fungus was measured spectrophotometrically after 48 hours of growth at 35° C.

Data set [6] has as its system sheep erythrocytes. Description: hemolysis of sheep erythrocytes. Format: cell-based. To be noted: 100 μg/mL. On the procedure: The cytotoxicity for the identified compounds was confirmed as previously described (Breger et al., PLoS Pathog, 3:e18 (2007); Moy et al., Proc Natl Acad Sci USA, 103:10414-10419 (2006)). Hemolysis of sheep erythrocytes (Rockland Immunochemicals) was monitored on a spectrophotometer at A540 with the two natural products A16 and A19 (100 μg/mL) in 2% DMSO. Triton X-100 and DMSO were used as controls.

For data set [7], the system named is C. albicans isolates. The data set is described as follows: interaction between A16 and fluconazole (MIC). Format: cell-based. The source says:
Since compound A16 was able to facilitate uptake of PS compounds, we investigated their ability to increase uptake to the commonly used antifungal agent fluconazole. As indicated above, fluconazole and saponins have different target sites, although they both function by altering the fungal cell membrane. […] One of the molecular mechanisms responsible for increased resistance to fluconazole for isolate 98-145 is a homozygous V437I point mutation in the ERG11 gene (White et al., Antimicrob Agents Chemother, 46:1704-1713 (2002)).

Data set [8] has as its system C. albicans DAY185. The following applies: at the concentrations used, yeast cells; cited from earlier work.
Where [9] appears, read: echinocandin-resistant strain A15.
Where [10] appears, read: fluconazole-resistant strain 95-120.
Setting [11] is: fluconazole-resistant strain 98-145.

In brackets after ≈: the same amount, converted by molar mass. Entries after “also recorded” stand apart in the source; their conditions may differ. Where two headings read alike, the source gives them in different places. Some results are limits rather than exact numbers.

For orientation: MIC means the lowest concentration found to suppress growth.

`C/C=C(/C)C(=O)O[C@H]1[C@H](OC(=O)/C(C)=C\C)[C@]2(CO)[C@H](O)C[C@]3(C)C(=CCC4[C@@]5(C)CC[C@H](OC6OC(C(=O)O)C(O)C(OC7OC(C)C(O)C(OC8OC(CO)C(O)C(O)C8O)C7O)C6O)C(C)(C)C5CC[C@]43C)[C@@H]2CC1(C)C` (some centres unmarked) [A7]: in data set [1], the MIC in vitro came to 3.1 µg/mL (≈ 2.72 µM) and the “in vitro growth of C. albicans” value was “completely inhibited”. The maximum nematode survival in data set [2] (dose response) is recorded as 93%. In addition, the “promoting C. elegans survival compared with amphotericin B” value in data set [2] (dose response, FIG. 2A) is “as effective as amphotericin B”. For the same molecule, in data set [2], the EC50 in vivo turned out to be 3.1 µg/mL (≈ 2.72 µM). The “toxicity to the nematode” value in data set [3] is “decrease in nematode survival; also recorded: maybe toxic to the nematode”.

`C/C=C(/C)C(=O)O[C@H]1CC(C)(C)C[C@H]2C3=CCC4[C@@]5(C)CC[C@H](O[C@@H]6O[C@H](C(=O)O)[C@@H](O[C@@H]7O[C@H](CO)[C@H](O)[C@H](O)[C@H]7O[C@@H]7O[C@H](CO)[C@@H](O)[C@H](O)[C@H]7O)[C@H](O)[C@H]6OC6O[C@@H](C)[C@H](O)[C@@H](O)[C@H]6O)C(C)(C)C5CC[C@@]4(C)[C@]3(C)C[C@@H](O)[C@@]12CO` (some centres unmarked) [A19] gave an MIC in vitro in data set [1] of 26.5 µg/mL (≈ 22 µM). Further, the “in vitro growth of C. albicans” value in data set [1] is “completely inhibited”. For the same molecule, in data set [2] (dose response), the maximum nematode survival is 80%. The EC50 in vivo in data set [2] is 26.5 µg/mL (≈ 22 µM). The “toxicity to the nematode” value in data set [3] is recorded as “none of the concentrations used in the dose response experiment showed signs of toxicity”. The MIC in data set [4] (C. albicans DAY185) came to 32 µg/mL (≈ 26.6 µM); in data set [4] (setting [9]), 16 µg/mL (≈ 13.3 µM); in data set [4] (setting [10]), 32 µg/mL (≈ 26.6 µM); in data set [4] (setting [11]), 32 µg/mL (≈ 26.6 µM). Also, the biofilm formation result in data set [5] is “able to inhibit biofilm formation”. Besides, the hemolytic activity entry in data set [6] was “no hemolytic activity”.

On to `CC1CC[C@@]2(OC1)O[C@H]1CC3C4C[C@@H](O)C5C[C@@H](O[C@@H]6O[C@H](CO)[C@H](O[C@@H]7O[C@H](CO)[C@@H](O)[C@H](O[C@@H]8OC[C@@H](O[C@@H]9O[C@H](CO)[C@@H](O)[C@H](O)[C@H]9O)[C@H](O)[C@H]8O)[C@H]7O[C@@H]7O[C@H](CO)[C@@H](O)[C@H](O)[C@H]7O)[C@H](O)[C@H]6O)CC[C@]5(C)C4CC[C@]3(C)[C@H]1[C@@H]2C` (some centres unmarked) [A24], for which the MIC in vitro in data set [1] came to 13.3 µg/mL (≈ 11 µM). Moreover, the maximum nematode survival in data set [2] (dose response) is recorded as 93%. Besides, the EC50 in vivo in data set [2] amounted to 13.3 µg/mL (≈ 11 µM). In addition, the “toxicity to the nematode” value in data set [3] is given as “decrease in nematode survival”. In data set [3] (in vivo), the “concentrations showing evidence of toxicity to the worms” value was greater than 27000 ng/mL.

On to `C[C@@H]1[C@H](O)[C@@H](C)/C=C/C=C/C=C/C=C/C=C/C=C/C=C/[C@H](O[C@@H]2O[C@H](C)[C@@H](O)[C@H](N)[C@@H]2O)C[C@@H]2O[C@](O)(C[C@@H](O)C[C@@H](O)[C@H](O)CC[C@@H](O)C[C@@H](O)CC(=O)O[C@H]1C)C[C@H](O)[C@H]2C(=O)O` [Amphotericin B], for which the MIC in vitro in data set [1] amounted to 1.0 µg/mL (≈ 1.08 µM). Also, in data set [2] (dose response), the maximum nematode survival was found to be 93%. The molecule further yielded an EC50 in vivo in data set [2] of 2.0 µg/mL (≈ 2.16 µM). In addition, the MIC in data set [4] (C. albicans DAY185), in data set [4] (setting [9]), in data set [4] (setting [10]) and in data set [4] (setting [11]) was 2 µg/mL (≈ 2.16 µM) each time.

`OC(Cn1cncn1)(Cn1cncn1)c1ccc(F)cc1F` [Fluconazole]: the MIC in data set [4] (Candida albicans, C. albicans DAY185, read-out: MIC) is 2 µg/mL (≈ 6.53 µM); in data set [4] (Candida albicans, echinocandin-resistant strain A15, read-out: MIC), 2 µg/mL (≈ 6.53 µM); in data set [4] (Candida albicans, fluconazole-resistant strain 95-120, read-out: MIC) it was 32 µg/mL (≈ 104 µM); in data set [4] (Candida albicans, fluconazole-resistant strain 98-145, read-out: MIC), greater than 128 µg/mL; in data set [7] (Candida albicans, C. albicans isolate DAY185, read-out: MIC of fluconazole alone), 2 µg/mL. For the same molecule, the “MIC of fluconazole in combination with A16” value in data set [7] (DAY185, subinhibitory A16 (4 μg/mL)) was 1 µg/mL. Besides, the “sensitivity to fluconazole treatment in the presence of A16” value in data set [7] (two C. albicans isolates with increased resistance to fluconazole) was “no increase in sensitivity”.

Consider `O=C1OC2(c3cc(I)c(O)c(I)c3Oc3c2cc(I)c(O)c3I)c2c(Cl)c(Cl)c(Cl)c(Cl)c21` [RB, Rose Bengal], for which the “PDI effect of photosensitizer alone” value in data set [8] was “no statistically significant PDI effect”.

Regarding `C=Cc1c(C)c2cc3nc(c(CC(=O)O)c4[nH]c(cc5nc(cc1[nH]2)C(C)=C5CC)c(C)c4C(=O)O)[C@@H](CCC(=O)O)[C@@H]3C` [ce6, chlorin(e6)], the “PDI effect of photosensitizer alone” value in data set [8] is on record as “no statistically significant PDI effect”.
